From patent US10251395B2, “Substituted furano-/thienocycloalkylamino-2-pyrimidine derivatives and use thereof for controlling undesired plant growth” (Bayer CropScience Aktiengesellschaft, priority 2015, dated 2019)

Legend:
Type in all cases: in vivo
Veronica persica [1] = experiment: Post-emergence herbicidal effect
Source text: (§1) • ABUTH: Abutilon theophrasti ALOMY: Alopecurus myosuroides • AMARE: Amaranthus retroflexus AVEFA: Avena fatua • CYPES: Cyperus esculentus ECHCG: Echinochloa crus-galli • LOLMU: Lolium multiflorum MATIN: Matricaria inodora • PHBPU: Ipomoea purpurea POLCO: Polygonum convolvulus • SETVI: Setaria viridis STEME: Stellaria media • VERPE: Veronica persica VIOTR: Viola tricolor Seeds of monocotyledonous and dicotyledonous weed and crop plants are laid out in sandy loam in wood-fiber pots, covered with soil and cultivated in a greenhouse under good growth conditions. 2 to 3 weeks after sowing, the test plants are treated at the one-leaf stage. The compounds of the invention, formulated in the form of wettable powders (WP) or as emulsion concentrates (EC), are then sprayed onto the green parts of the plants as aqueous suspension or emulsion at a water application rate equating to 600 to 800 L/ha with addition of 0.2% wetting agent. After the test plants have been left to stand in the greenhouse under optimal growth conditions for about 3 weeks, the action of the preparations is assessed visually in comparison to untreated controls (herbicidal action in percent (%): 100% activity=the plants have died, 0% activity=like control plants).

Amaranthus retroflexus [2] = experiment: Post-emergence herbicidal effect; settings: assessed visually after about 3 weeks vs untreated controls
Source text: as §1

Matricaria inodora = experiment: Pre-emergence herbicidal effect; settings: scored visually after 3 weeks
Source text: (§2) Seeds of monocotyledonous and dicotyledonous weed plants and crop plants are laid out in wood-fiber pots in sandy loam and covered with soil. The compounds of the invention, formulated in the form of wettable powders (WP) or as emulsion concentrates (EC), are then applied to the surface of the covering soil as aqueous suspension or emulsion at a water application rate equating to 600 to 800 L/ha with addition of 0.2% wetting agent.
(§3) After the treatment, the pots are placed in a greenhouse and kept under good growth conditions for the trial plants. The damage to the test plants is scored visually after a test period of 3 weeks by comparison with untreated controls (herbicidal activity in percent (%): 100% activity=the plants have died, 0% activity=like control plants).
(§4) • ABUTH: Abutilon theophrasti ALOMY: Alopecurus myosuroides • AMARE: Amaranthus retroflexus AVEFA: Avena fatua • CYPES: Cyperus esculentus ECHCG: Echinochloa crus-galli • LOLMU: Lolium multiflorum MATIN: Matricaria inodora • PHBPU: Ipomoea purpurea POLCO: Polygonum convolvulus • SETVI: Setaria viridis STEME: Stellaria media • VERPE: Veronica persica VIOTR: Viola tricolor

Veronica persica [3] = experiment: Pre-emergence herbicidal effect; settings: scored visually after 3 weeks
Source text: as §2, §3, §4

Amaranthus retroflexus [4] = experiment: Pre-emergence herbicidal effect; settings: scored visually after 3 weeks
Source text: as §2, §3, §4

Stellaria media [5] = experiment: Pre-emergence herbicidal effect; settings: scored visually after 3 weeks
Source text: as §2, §3, §4

Viola tricolor [6] = experiment: Pre-emergence herbicidal effect; settings: scored visually after 3 weeks
Source text: as §2, §3, §4

Alopecurus myosuroides = experiment: Pre-emergence herbicidal effect; settings: Dosage 320 g/ha, scored visually after 3 weeks
Source text: as §2, §3, §4

Setaria viridis = experiment: Pre-emergence herbicidal effect; settings: Dosage 320 g/ha, scored visually after 3 weeks
Source text: as §2, §3, §4

Polygonum convolvulus = experiment: Pre-emergence herbicidal effect; settings: Dosage 320 g/ha, scored visually after 3 weeks
Source text: as §2, §3, §4

Stellaria media [7] = experiment: Post-emergence herbicidal effect; settings: assessed visually after about 3 weeks vs untreated controls
Source text: as §1

Abutilon theophrasti = experiment: Post-emergence herbicidal effect; settings: 320 g/ha, assessed visually after about 3 weeks vs untreated controls
Source text: as §1

Viola tricolor [8] = experiment: Post-emergence herbicidal effect
Source text: as §1

[9] = 320 g/ha, assessed visually after about 3 weeks vs untreated controls
[10] = 80 g/ha, assessed visually after about 3 weeks vs untreated controls
[11] = dosage not printed (first line of Ex. 30)

SMILES | MATIN pre-emergence efficacy (herbicidal activity) (Matricaria inodora; Dosage 320 g/ha) [%] | VERPE pre-emergence efficacy (herbicidal activity) (Veronica persica [3]; Dosage 320 g/ha) [%] | AMARE pre-emergence efficacy (herbicidal activity) (Amaranthus retroflexus [4]; Dosage 320 g/ha) [%] | STEME pre-emergence efficacy (herbicidal activity) (Stellaria media [5]; Dosage 320 g/ha) [%] | VIOTR pre-emergence efficacy (herbicidal activity) (Viola tricolor [6]; Dosage 320 g/ha) [%] | VERPE pre-emergence efficacy (herbicidal activity) (Veronica persica [3]; Dosage 80 g/ha) [%] | STEME pre-emergence efficacy (herbicidal activity) (Stellaria media [5]; Dosage 80 g/ha) [%] | POLCO pre-emergence efficacy (herbicidal activity) (Polygonum convolvulus) [%] | other results
Cc1cc2c(s1)CCC2Nc1ncc(S(=O)(=O)NCc2ccc(F)cc2)c(N)n1 (racemic) [compound 38] | 100 | 90 | 90 |  |  |  |  |  | post-emergence efficacy VERPE (Veronica persica [1]; [9]): 90%; post-emergence efficacy AMARE (Amaranthus retroflexus [2]; 320 g/ha): 80%
COc1nc(NC2CCCc3sc(C)cc32)ncc1C(F)(F)F (racemic) [compound 10] |  | 100 | 80 | 100 |  |  |  |  | 
Cc1cc2c(s1)CCCC2Nc1ncc(-c2cccc(Cl)c2)c(N)n1 (racemic) [compound 297] | 100 | 100 |  | 100 | 90 | 100 | 80 |  | VIOTR pre-emergence efficacy (herbicidal activity) (Viola tricolor [6]; Dosage 80 g/ha): 70%; MATIN pre-emergence efficacy (herbicidal activity) (Matricaria inodora; Dosage 80 g/ha): 90%
CC(=NOC(C)C)c1cnc(NC2CCCc3sc(C)cc32)nc1N (racemic) [compound 342] | 100 | 100 |  | 100 |  | 100 | 100 |  | ALOMY pre-emergence efficacy (herbicidal activity) (Alopecurus myosuroides): 70%
Cc1cc2c(s1)CCCC2Nc1nc(N)c(S(C)(=O)=O)c(C(C)F)n1 (racemic) [compound 318] | 90 | 100 | 100 | 100 | 100 |  |  | 100 | SETVI pre-emergence efficacy (herbicidal activity) (Setaria viridis): 100%
N=S(=O)(c1ccccc1)c1cnc(NC2CCCc3sccc32)nc1N (racemic) [compound 27] | 100 | 100 | 100 | 100 | 100 |  |  |  | MATIN pre-emergence efficacy (herbicidal activity) (Matricaria inodora; Dosage 80 g/ha): 90%
Nc1nc(NC2CCCc3occc32)ncc1C(F)(F)F (racemic) [compound 7] | 90 |  | 100 | 90 | 100 |  | 80 |  | post-emergence efficacy STEME (Stellaria media [7]; 320 g/ha): 80%; post-emergence efficacy ABUTH (Abutilon theophrasti): 40%
Cc1sc(C)c2c1CCCC2Nc1ncc(C(F)(F)F)c(N)n1 (racemic) [compound 2] | 80 |  |  | 100 | 100 |  |  |  | 
Cc1cc2c(s1)CCCC2Nc1nc(N)c(-c2cncc(F)c2)c(C(C)F)n1 (racemic) [compound 316] | 80 | 100 | 100 | 100 | 100 |  |  | 70 | post-emergence efficacy VIOTR (Viola tricolor [8]; [9]): 80%; post-emergence efficacy VERPE (Veronica persica [1]; [9]): 100%
CC(=O)c1cnc(NC2CCCc3sc(Cl)cc32)nc1C (stereo not shown) [compound 303] | 90 | 100 | 100 | 100 | 90 | 100 | 100 | 60 | VIOTR pre-emergence efficacy (herbicidal activity) (Viola tricolor [6]; Dosage 80 g/ha): 70%; MATIN pre-emergence efficacy (herbicidal activity) (Matricaria inodora; Dosage 80 g/ha): 80%; AMARE pre-emergence efficacy (herbicidal activity) (Amaranthus retroflexus [4]; Dosage 80 g/ha): 100%
Cc1cc2c(s1)CCCC2Nc1nc(N)c(S(C)(=O)=O)c(C(F)(F)F)n1 (racemic) [compound 298] | 100 | 100 | 100 | 100 | 100 | 100 | 100 | 50 | post-emergence efficacy VIOTR (Viola tricolor [8]; [10]): 80%; post-emergence efficacy VIOTR (Viola tricolor [8]; [9]): 80%; post-emergence efficacy AMARE (Amaranthus retroflexus [2]; 80 g/ha): 70%; post-emergence efficacy AMARE (Amaranthus retroflexus [2]; 320 g/ha): 90%; VIOTR pre-emergence efficacy (herbicidal activity) (Viola tricolor [6]; Dosage 80 g/ha): 90%; ALOMY pre-emergence efficacy (herbicidal activity) (Alopecurus myosuroides): 90%
Cc1cc2c(s1)CCCC2Nc1ncc(C(=O)C(F)(F)Cl)c(N)n1 (racemic) [compound 30] | 100 | 100 | 100 | 100 | 100 | 90 | 90 |  | post-emergence efficacy VIOTR (Viola tricolor [8]; [11]): 90%; post-emergence efficacy VIOTR (Viola tricolor [8]; dosage not printed (second line of Ex. 30)): 80%; post-emergence efficacy VERPE (Veronica persica [1]; [11]): 80%; SETVI pre-emergence efficacy (herbicidal activity) (Setaria viridis): 90%; VIOTR pre-emergence efficacy (herbicidal activity) (Viola tricolor [6]; Dosage 80 g/ha): 100%; MATIN pre-emergence efficacy (herbicidal activity) (Matricaria inodora; Dosage 80 g/ha): 100%; AMARE pre-emergence efficacy (herbicidal activity) (Amaranthus retroflexus [4]; Dosage 80 g/ha): 90%
CON=C(C)c1cnc(NC2CCCc3sccc32)nc1N (racemic) [compound 310] |  |  |  | 90 | 100 |  |  |  | 
Cc1cc2c(s1)CCCC2Nc1nc(N)c(-c2cncc(F)c2)c(C(F)F)n1 (racemic) [compound 299] | 90 |  | 100 |  | 100 |  |  |  | post-emergence efficacy VIOTR (Viola tricolor [8]; [9]): 90%; SETVI pre-emergence efficacy (herbicidal activity) (Setaria viridis): 90%; ALOMY pre-emergence efficacy (herbicidal activity) (Alopecurus myosuroides): 100%
Cc1cccc(-c2c(N)nc(NC3CCCc4sc(C)cc43)nc2C(F)F)c1 (racemic) [compound 304] |  | 100 |  | 100 |  | 100 |  | 60 | 
C/C(=N/O)c1cnc(NC2CCCc3sc(Cl)cc32)nc1C (racemic) [compound 259] |  | 100 |  | 100 | 80 |  |  |  | SETVI pre-emergence efficacy (herbicidal activity) (Setaria viridis): 100%
Cc1cc2c(s1)CCCC2Nc1ncc(-c2cccc(F)c2)c(N)n1 (racemic) [compound 265] | 100 | 100 |  | 100 |  | 100 |  | 60 | post-emergence efficacy VIOTR (Viola tricolor [8]; [10]): 80%; post-emergence efficacy VIOTR (Viola tricolor [8]; [9]): 80%; post-emergence efficacy VERPE (Veronica persica [1]; [10]): 90%; post-emergence efficacy VERPE (Veronica persica [1]; [9]): 90%; post-emergence efficacy AMARE (Amaranthus retroflexus [2]; 80 g/ha): 80%; post-emergence efficacy AMARE (Amaranthus retroflexus [2]; 320 g/ha): 80%; post-emergence efficacy STEME (Stellaria media [7]; 80 g/ha): 60%; post-emergence efficacy STEME (Stellaria media [7]; 320 g/ha): 60%
